Results reported in ChEMBL document CHEMBL3885861, “Open TG-GATES”.

Organism: Rattus norvegicus
Assay: Open TG-GATES - Regimen: Single
Type: toxicity, organism-based, Sprague-Dawley
Set-up: regimen Single, gender Male, age 6 weeks
Settings: in vivo, po, 6 mg/kg, route gavage, dose level High; for APTT / Bas / Eos / Fbg / Hb / Ht / Lym / MCH / MCHC / MCV / Mono / Neu / PT / Plat / RBC / Ret / WBC: tissue Blood; for KIDNEY_L / KIDNEY_R / KIDNEY_TOTAL: tissue Kidney; for LIVER: tissue Liver; for A/G / ALP / ALT / AST / BUN / CRE / Ca / Cl / DBIL / GLC / IP / K / LDH / Na / PL / RALB / TBIL / TC / TG / TP / gamma-GTP: tissue Plasma

## O=NN(CCCl)C(=O)NC1CCCCC1 [LOMUSTINE]
9 h
  TERMINAL_BW: 203.2 g
  APTT: 16.7 s
  Bas: 0%
  Eos: 0.4%
  Fbg: 224.6 mg/dL
  Hb: 13.2 g/dL
  Ht: 40.1%
  Lym: 79.2%
  MCH: 21.9 pg
  MCHC: 32.9%
  MCV: 66.5 fL
  Mono: 5.8%
  Neu: 15%
  PT: 12.2 s
  Plat: 104.4 x10_4/uL
  RBC: 603 x10_4/ul
  Ret: 9.2%
  WBC: 97 x10_2/uL
  KIDNEY_L: 1 g
  KIDNEY_R: 1 g
  KIDNEY_TOTAL: 1.9 g
  LIVER: 8.7 g
  A/G: 2.2
  ALP: 889.4 IU/L
  ALT: 31.4 IU/L
  AST: 67 IU/L
  BUN: 13 mg/dL
  CRE: 0.5 mg/dL
  Ca: 10.9 mg/dL
  Cl: 106.4 meq/L
  DBIL: 0.028 mg/dL
  GLC: 190.8 mg/dL
  IP: 11.3 mg/dL
  K: 5 meq/L
  LDH: 139.4 IU/L
  Na: 140 meq/L
  PL: 139.4 mg/dL
  RALB: 3.9 g/dL
  TBIL: 0.3 mg/dL
  TC: 78.2 mg/dL
  TG: 39.8 mg/dL
  TP: 5.7 g/dL
  gamma-GTP: 1.4 IU/L
24 h
  TERMINAL_BW: 212 g
  APTT: 15.7 s
  Bas: 0%
  Eos: 0.4%
  Fbg: 214.2 mg/dL
  Hb: 13.1 g/dL
  Ht: 39.2%
  Lym: 84.4%
  MCH: 21.5 pg
  MCHC: 33.2%
  MCV: 64.7 fL
  Mono: 7%
  Neu: 7.8%
  PT: 12.3 s
  Plat: 107.2 x10_4/uL
  RBC: 606.6 x10_4/ul
  Ret: 8.4%
  WBC: 121.5 x10_2/uL
  KIDNEY_L: 1 g
  KIDNEY_R: 1 g
  KIDNEY_TOTAL: 2 g
  LIVER: 10.5 g
  A/G: 2
  ALP: 873 IU/L
  ALT: 35.2 IU/L
  AST: 66.6 IU/L
  BUN: 17.4 mg/dL
  CRE: 0.5 mg/dL
  Ca: 11.2 mg/dL
  Cl: 105.2 meq/L
  DBIL: 0.014 mg/dL
  GLC: 180.4 mg/dL
  IP: 8.1 mg/dL
  K: 4.7 meq/L
  LDH: 106.2 IU/L
  Na: 137.8 meq/L
  PL: 144.6 mg/dL
  RALB: 3.9 g/dL
  TBIL: 0.3 mg/dL
  TC: 78.8 mg/dL
  TG: 71.4 mg/dL
  TP: 5.8 g/dL
  gamma-GTP: 1.4 IU/L
